Reference: article PMC9558510 (Cancers, 2022)

Key:
[1] = popPK model-informed VAMS-to-serum conversion model (self-sampled capillary blood); type: in vivo, human; conditions: for Ind V1/F / Ind CL/F / Ind Q/F: at-home VAMS; for Ind Kbp: MAP estimate from at least one paired sample
Method: In addition to serum sampling, patients were asked to participate in the sampling of capillary blood in the clinic and at home. Micro-sampling was not obligatory for enrollment in the study. Micro-sampling was performed from a finger by drawing 20 µL of capillary blood onto the VAMS device MITRA® purchased from Neoteryx (Torrance, CA, USA). During outpatient visits, micro-sampling was conducted by medical staff in parallel to serum sampling. A maximum of six corresponding serum/VAMS samples were collected per patient. Additionally, patients were asked to perform at-home sampling after being instructed by trained staff. For each at-home sampling occasion, patients received a set including four VAMS devices. Patients were instructed to perform sampling at four different time points during the following four time slots: 9 a.m.–12 p.m., 12–3 p.m., 3–6 p.m., and 6–9 p.m. […] Samples collected during different time slots were still accepted. The time of last drug administration and sampling times were self-documented on a specific form. No special storage conditions were specified, and patients were asked to keep samples at ambient temperature until shipment. Samples were sent to the laboratory in an airtight and opaque bag containing desiccant for analysis. At-home samples were collected at up to four occasions per patient. Hematocrit was documented from the results of routine blood withdrawal for VAMS samples collected during outpatient visits. For at-home samples, the last known hematocrit was used. […]
The conversion was based on a hematocrit-dependent formula (Figure 1). […] As proposed by Iacuzzi et al., the blood cell to plasma partition coefficient (Kbp) and intraindividual variability (IIV) were included in the conversion model and estimated from the consolidated data (Figure 1). For this purpose and to evaluate the conversion models, all the serum (Supplementary Table S1) and VAMS concentrations (collected at home or in the clinic) (Supplementary Table S2) were consolidated in a single dataset and fitted to the combined model using the EBE in Monolix 2021R1 (Lixoft SAS, Antony, France). Incorrectly sampled VAMS were removed from the dataset. The resulting individual predicted VAMS concentrations were compared with the observed VAMS concentrations. […] For trametinib, at least one paired sample per patient was included to generate the individual estimate for Kbp. A visual predictive check was performed to evaluate the predictive performance of the method.
Figure 1 Development of the population pharmacokinetic (popPK) model-informed VAMS-to-serum conversion model. PopPK models by Balakirouchenane et al. were used to generate serum maximum a posteriori (MAP) estimates from volumetric absorptive micro-sampling (VAMS) for dabrafenib (A) and trametinib (B).

[2] = parameters: method as in PMID 24408395; conditions: cited from earlier work
[3] = parameters: method as in PMID 33846903; conditions: cited from earlier work
[4] = MAP estimate, patient DT002, 2 mg/24 h
[5] = MAP estimate, patient DT010, 2 mg/24 h
[6] = MAP estimate, patient DT014, 2 mg/24 h
[7] = MAP estimate, patient DT018, 1 mg/24 h
[8] = MAP estimate, patient DT019, 1.5 mg/24 h
[9] = MAP estimate, patient DT026, 2 mg/24 h
[10] = MAP estimate, patient DT027, 2 mg/24 h

CC(C)(C)c1nc(-c2cccc(NS(=O)(=O)c3c(F)cccc3F)c2F)c(-c2ccnc(N)n2)s1 [dabrafenib]
Ind V1/F ([1]; MAP estimate, patient DT002, 150 mg/12 h): 30.8 L | Ind V1/F ([1]; MAP estimate, patient DT005, 150 mg/12 h): 24.7 L | Ind V1/F ([1]; MAP estimate, patient DT010, 150 mg/12 h): 14.3 L | Ind V1/F ([1]; MAP estimate, patient DT014, 150 mg/12 h): 30.2 L | Ind V1/F ([1]; MAP estimate, patient DT018, 150 mg/12 h): 82.5 L | Ind V1/F ([1]; MAP estimate, patient DT019, 150 mg/12 h): 39.5 L | Ind V1/F ([1]; MAP estimate, patient DT026, 100 mg/12 h): 40.3 L | Ind V1/F ([1]; MAP estimate, patient DT027, 150 mg/12 h): 71.5 L | Ind CL/F ([1]; patient DT002, occasion 1, 150 mg/12 h): 13.5 L/h | Ind CL/F ([1]; patient DT002, occasion 2, 150 mg/12 h): 17.2 L/h | Ind CL/F ([1]; patient DT002, occasion 3, 150 mg/12 h): 21.1 L/h | Ind CL/F ([1]; patient DT005, occasion 1, 150 mg/12 h): 20.7 L/h | Ind CL/F ([1]; patient DT010, occasion 1, 150 mg/12 h): 18.5 L/h | Ind CL/F ([1]; patient DT010, occasion 2, 150 mg/12 h): 33.3 L/h | Ind CL/F ([1]; patient DT010, occasion 3, 150 mg/12 h): 12.1 L/h | Ind CL/F ([1]; patient DT014, occasion 1, 150 mg/12 h): 30.1 L/h | Ind CL/F ([1]; patient DT018, occasion 1, 150 mg/12 h): 24.7 L/h | Ind CL/F ([1]; patient DT018, occasion 2, 150 mg/12 h): 14.9 L/h | Ind CL/F ([1]; patient DT018, occasion 3, 150 mg/12 h): 37.5 L/h | Ind CL/F ([1]; patient DT018, occasion 4, 150 mg/12 h): 32.3 L/h | Ind CL/F ([1]; patient DT019, occasion 1, 150 mg/12 h): 33.1 L/h | Ind CL/F ([1]; patient DT019, occasion 2, 150 mg/12 h): 15.8 L/h | Ind CL/F ([1]; patient DT019, occasion 3, 150 mg/12 h): 9.8 L/h | Ind CL/F ([1]; patient DT019, occasion 4, 150 mg/12 h): 24.2 L/h | Ind CL/F ([1]; patient DT026, occasion 1, 100 mg/12 h): 33.3 L/h | Ind CL/F ([1]; patient DT026, occasion 2, 100 mg/12 h): 41.1 L/h | Ind CL/F ([1]; patient DT026, occasion 3, 100 mg/12 h): 38.7 L/h | Ind CL/F ([1]; patient DT027, occasion 1, 150 mg/12 h): 28.6 L/h | Ind CL/F ([1]; patient DT027, occasion 2, 150 mg/12 h): 23.2 L/h | Ind CL/F ([1]; patient DT027, occasion 3, 150 mg/12 h): 36.5 L/h | CYP3A autoinduction: induction half-life [2]: approximately 67 h | half-life [2]: eight | protein binding [3]: > 99.5%

CC(=O)Nc1cccc(-n2c(=O)n(C3CC3)c(=O)c3c(Nc4ccc(I)cc4F)n(C)c(=O)c(C)c32)c1 [trametinib]
Ind Kbp ([1]; patient DT002): 4.84 | Ind Kbp ([1]; patient DT010): 4.98 | Ind Kbp ([1]; patient DT014): 5.36 | Ind Kbp ([1]; patient DT018): 3.89 | Ind Kbp ([1]; patient DT019): 3.91 | Ind Kbp ([1]; patient DT026): 4.38 | Ind Kbp ([1]; patient DT027): 4.41 | Ind CL/F [1, 4]: 6.07 L/h | Ind Q/F [1, 4]: 97.65 L/h | Ind CL/F [1, 5]: 6.63 L/h | Ind Q/F [1, 5]: 125.55 L/h | Ind CL/F [1, 6]: 8.36 L/h | Ind Q/F [1, 6]: 129.17 L/h | Ind CL/F [1, 7]: 3.52 L/h | Ind Q/F [1, 7]: 185.04 L/h | Ind CL/F [1, 8]: 3.79 L/h | Ind Q/F [1, 8]: 77.82 L/h | Ind CL/F [1, 9]: 6.25 L/h | Ind Q/F [1, 9]: 106.5 L/h | Ind CL/F [1, 10]: 6.95 L/h | Ind Q/F [1, 10]: 65.04 L/h | population value for Kbp (blood cell to plasma partition coefficient) ([1]; estimated from combined serum and VAMS dataset): 4.62 | IIV of ωKbp ([1]; extended trametinib model): 0.31
